# Legend:
# [1] = system: zebrafish intersegmental vessels; experiment: Quantification of intersegmental vessel number in zebrafish; format: in vivo; conditions: 10 μM, from 6 hpf
# Protocol: […] Larvae were manually dechorionated, euthanised, and fixed in 4% PFA at 4° C. overnight before analysis. The larvae were then washed with PBS and transferred to depression slides for observation under epi-fluorescence in an Olympus SZX16 fluorescent microscope. The number of intersegmental vessels was counted and the average number was graphed for each drug.
# Larvae were manually dechorionated, euthanised, and fixed in 4% PFA at 4° C. overnight before analysis. The larvae were then washed with PBS and transferred to depression slides for observation under epi-fluorescence in an Olympus SZX16 fluorescent microscope. The number of intersegmental vessels was counted and the average number was graphed for each drug.
# [2] = system: OE33P radio-sensitive oesophageal adenocarcinoma cells; experiment: Cell number after 24 hours drug treatment (crystal violet absorbance), OE33P; format: cell-based, human; conditions: 10 μM
# Protocol: (§1) OE33P radio-sensitive and OE33R radio-resistant oesophageal adenocarcinoma cells were used to test the effects of the compounds 11B HCl, […], 11B CC16 HCl, 11B 471 and 11B 268 on cell number. Cells were maintained in RPMI media supplemented with 10% foetal calf serum, penicillin (100 U/ml) and streptomycin (100 gig/ml). A total of 11.000 or 13,000 cells, in 100 μl media, were seeded per well in 24 well plates and left to incubate for 24 hours, with an additional 150 μl media added after 5 hours. The media was replaced with solutions containing 10 μM of 11B HCl, 11B CC11 HCl, 11B CC16 HCl, 11B 471, 11B 268 or fresh media as a control. Each drug had 6 replicates. After 24 hours of treatment, the cells were fixed with 1% glutaraldehyde for 15 minutes and then stained with crystal violet for 30 minutes. The plates were blotted and dried overnight. The cells were resuspended with 1% TritonX-100 and shaken for 15 minutes. The absorbance was read on a spectrophotometer at 590 nm.
# (§2) OE33P radiosensitive and OE33R radioresistant cells were used to test the effects of the compound 11B_Z_HCl on toxicity. Cells were maintained in RPMI media supplemented with 10% foetal calf serum, penicillin (100 U/ml) and streptomycin (100 μg/ml). A total of 11,000 cells, in 100 μl media, were seeded per well in 24 well plates and left to incubate for 24 hours, with an additional 150 μl media added after 5 hours. The media was replaced with solutions containing 10 μM of 11B_Z_HCl or fresh media as a control. Each treatment had 6 replicates. After 24 hours of treatment, the cells were fixed with 1% glutaraldehyde for 15 minutes and then stained with crystal violet for 30 minutes. The plates were blotted and dried overnight. The cells were resuspended with 1% TritonX-100 and shaken for 15 minutes. The absorbance was read on a spectrophotometer at 590 nm.
# [3] = system: OE33R radio-resistant oesophageal adenocarcinoma cells; experiment: Quantification of glycolysis (ECAR, Seahorse), OE33R; format: cell-based, human; conditions: 10 μM, 24 hours
# Protocol: OE33P radio-sensitive and OE33R radio-resistant oesophageal adenocarcinoma cells were used to test the effects of compounds 11B HCl, 11B CC11 HCl, 11B CC16 HCl, 11B 471 and 11B 268 on glycolysis. Cells were maintained in RPMI media supplemented with 10% foetal calf serum, penicillin (100 U/ml) and streptomycin (100 μg/ml). A total of 11,000 or 13,000 cells, in 100 μl media, were seeded per well in 24 well plates and left to incubate for 24 hours, with an additional 150 μl media added after 5 hours. The media was replaced with solutions containing 10 μM of 11B HCl, […], 11B CC16 HCl, 11B 471, 11B 268 or fresh media as a control. Each drug had 6 replicates. After 24 hours of treatment, media was replaced with modified DMEM supplemented with 0.5 mM glucose. Rates of glycolysis were determined using Seahorse Biosciences metabolism technology. The media was disposed and the cells washed with PBS. The cells were fixed with 1% glutaraldehyde for 15 minutes and then stained with crystal violet for 30 minutes. The plates were blotted and dried overnight. The cells were resuspended with 1% TritonX-100 and shaken for 15 minutes. The absorbance was read on a spectrophotometer at 590 nm. Rates of glycolysis were then normalised to cell number.
# OE33P radiosensitive oesophageal adenocarcinoma cells were used to test the effects of the compound 11B_ZHCl on glycolysis. Cells were maintained in RPMI media supplemented with 10% foetal calf serum, penicillin (100 U/ml) and streptomycin (100 μg/ml). A total of 11,000 cells, in 100 μl media, were seeded per well in 24 well plates and left to incubate for 24 hours, with an additional 150 μl media added after 5 hours. The media was replaced with solutions containing 10 μM of 11B_ZHCl or fresh media as a control. Each treatment had 6 replicates. After 24 hours of treatment, media was replaced with modified DMEM supplemented with 0.5 mM glucose. Rates of glycolysis were determined using Seahorse Biosciences metabolism technology. […] The absorbance was read on a spectrophotometer at 590 nm. […] No changes in ECAR were detected in OE33R treated cells.
# [4] = system: zebrafish hyaloid vasculature; experiment: Quantification of primary hyaloid vasculature branch number in Tg(fli1:EGFP) zebrafish; format: in vivo
# Protocol: (§3) All experiments were carried out under ethical approval granted by the UCD animal research ethics committee. Tg(fli1:EGFP) zebrafish were maintained according to standard procedures on a 14 hr light/10 hr dark cycle at 28° C. Embryos were obtained by natural spawning and developmental stages established by time and morphological criteria. […] Larvae were euthanised, and fixed in 4% PFA at 4° C. overnight before analysis.
# Overall patterning of the vasculature (fin, gut and intersegmental vessels) was examined for abnormalities. Right lenses were dissected from the larvae and transferred to depression slides for observation under epi-fluorescence in the Olympus SZX16. Patterning of the hyaloid vessels on the treated larval lenses was compared to DMSO controls and the archetypal pattern previously described (Alvarez et al., 2007; Alvarez et al., 2009).
# as §3, with “analysis. Lenses were dissected from the larvae and transferred to depression slides for observation under epi-fluorescence in the Olympus SZX16. Patterning of the hyaloid vessels on the treated larval lenses was compared to DMSO controls and the archetypal pattern previously described (Alvarez et al., 2007; Alvarez et al., 2009).” for “analysis.”
# [5] = system: OE33R radio-resistant oesophageal adenocarcinoma cells; experiment: Cell number after 24 hours drug treatment (crystal violet absorbance), OE33R; format: cell-based, human; conditions: 10 μM
# Protocol: as §1, §2
# [6] = target: T1, cysteinyl-leukotriene CysLT1 (Cavia porcellus, UniProt Q2NNR5); experiment: Ex vivo cysteinyl leukotriene guinea pig lung strip assay; conditions: 30 μM, 3 nM leukotriene D4
# T1 construct: a lung strip obtained from Duncan Hartley derived male or female guinea pigs; from tissue; host or cells: guinea pig lung strip
# T1 sequence (Q2NNR5 1-340): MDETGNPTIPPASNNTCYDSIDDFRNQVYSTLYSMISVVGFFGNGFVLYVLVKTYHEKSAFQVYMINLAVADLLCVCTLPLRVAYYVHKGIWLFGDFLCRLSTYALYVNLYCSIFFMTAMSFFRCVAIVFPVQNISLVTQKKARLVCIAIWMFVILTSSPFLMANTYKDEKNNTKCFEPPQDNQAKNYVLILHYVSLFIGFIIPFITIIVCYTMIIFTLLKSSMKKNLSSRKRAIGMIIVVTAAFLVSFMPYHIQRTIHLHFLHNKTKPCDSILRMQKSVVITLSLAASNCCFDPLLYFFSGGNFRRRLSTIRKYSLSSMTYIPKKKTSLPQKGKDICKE
# Protocol: (§4) FIG. 15 tables the percentage inhibition by compounds 11B_CC11_HCl and 11B_CC16_HCl on the cysteinyl leukotriene pathway in in vitro and ex vivo assays. […] For in vitro cysteinyl leukotriene cell-based assays 11B_CC11_HCl and 11B_CC16_HCl, were tested at 30 μM concentration in duplicate, in a single experiment for their ability to inhibit the calcium mobilisation response of the CysLT1 receptor to 0.1 nM leukotriene D4 in CHO cells over-expressing the CysLT1 receptor or the calcium mobilisation response of the CysLT2 receptor to 30 nM of leukotriene C4 in HEK 293 cells over expressing the CysLT2 receptor.
# (§5) Target profiling using Cerep and Eurofins/Panlabs profiling screens was undertaken using 11B_CC11_HCl and 11B_CC16_HCl in order to investigate the mechanism of action. […] Test substance (30 LM)-induced isometrically recorded contraction by 50 percent or more within 5 min, relative to control 3 nM leukotriene D4 response, indicates possible cysteinyl-leukotriene LT1 receptor agonist activity. […] To measure inhibition of cysteinyl leukotriene 1 (CysLT1 [LTD4]) and cysteinyl leukotriene 2 (CysLT2 [LTC4]) receptor activity, calcium mobilisation was measured using Fluor-3-loaded CHO cells (for cysLT1 assays) or HEK-293 cells (for CysLT2 assays) which stably express either the CysLT1 or CysLT2 receptors. […]
# CysLT1 receptor = target: T2, CysLT1 receptor (Homo sapiens, UniProt Q9Y271); experiment: CysLT1 calcium mobilisation assay in CHO cells; format: cell-based; conditions: 0.1 nM LTD4, CHO cells expressing CysLT1, read-out: inhibition of calcium mobilisation (CysLT1 antagonism)
# T2 construct: host or cells: CHO cells
# T2 sequence (Q9Y271 1-337): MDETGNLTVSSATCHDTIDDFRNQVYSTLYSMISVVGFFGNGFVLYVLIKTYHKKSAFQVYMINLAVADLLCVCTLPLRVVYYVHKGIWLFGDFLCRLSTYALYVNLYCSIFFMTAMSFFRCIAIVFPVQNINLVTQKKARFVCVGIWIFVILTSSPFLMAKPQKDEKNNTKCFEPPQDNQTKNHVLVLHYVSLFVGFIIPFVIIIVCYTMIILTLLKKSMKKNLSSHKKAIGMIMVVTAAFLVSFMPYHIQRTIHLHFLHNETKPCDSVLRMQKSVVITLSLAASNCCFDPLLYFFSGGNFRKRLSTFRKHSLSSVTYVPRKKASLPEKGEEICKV
# Protocol: as §4, §5
# CysLT2 receptor = target: T3, CysLT2 receptor (Homo sapiens, UniProt Q9NS75); experiment: CysLT2 calcium mobilisation assay in HEK 293 cells; format: cell-based; conditions: HEK293, 30 nM LTC4, HEK-293 cells expressing CysLT2, read-out: inhibition of calcium mobilisation (CysLT2 antagonism)
# T3 construct: host or cells: HEK 293 cells
# T3 sequence (Q9NS75 1-346): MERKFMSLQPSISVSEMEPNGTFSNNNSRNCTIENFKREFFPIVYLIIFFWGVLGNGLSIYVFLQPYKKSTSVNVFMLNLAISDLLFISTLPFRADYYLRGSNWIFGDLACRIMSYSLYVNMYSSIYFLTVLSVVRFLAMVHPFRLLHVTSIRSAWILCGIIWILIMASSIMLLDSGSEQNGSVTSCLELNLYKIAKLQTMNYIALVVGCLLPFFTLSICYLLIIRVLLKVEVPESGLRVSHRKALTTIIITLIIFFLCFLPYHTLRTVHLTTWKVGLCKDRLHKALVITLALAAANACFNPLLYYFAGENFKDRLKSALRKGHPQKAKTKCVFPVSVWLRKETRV
# Protocol: as §4, §5
SMILES,inhibition of developmental angiogenesis of intersegmental vessels (number of intersegmental vessels) [1],"cell number, measured by % absorbance [2]","extracellular acidification rate (ECAR), a measure of glycolysis [3]","dose-dependent inhibition of development of hyaloid vessels ([4]; decreasing doses 20, 10, 7.5, 5, 2.5, 1 and/or 0.5 μM)","inhibition of developmental angiogenesis of the hyaloid vasculature (number of primary hyaloid vessels) ([4]; typically 10 μM or 5 μM, from 24 hpf, vs DMSO control)","cell number, measured by % absorbance [5]",reduction of the leukotriene D4-induced contractile response [6] [%],inhibition at 30 µM (CysLT1 receptor) [%],inhibition at 30 µM (CysLT2 receptor) [%]
"C(=Cc1ccc2ccccc2n1)c1cccnc1 [Compound 11B-471, 2-[2-(3-pyridinyl)vinyl]quinoline]",inhibit developmental angiogenesis of zebrafish intersegmental vessels in a statistically significant manner,did not significantly reduce cell number,significantly reduce,inhibit developmental angiogenesis of zebrafish hyaloid vasculature in a dose-dependent statistically significant manner,inhibit developmental angiogenesis of the zebrafish hyaloid vasculature in a statistically significant manner,did not significantly reduce cell number,,,
"Cl.Oc1ccccc1C#Cc1ccc2ccccc2n1 [Compound 11B_CC16_HCl, 2-Quinolin-2-yl-ylethynyl-phenol HCl salt]",,,,,,,100,137,48
